{"source": "patent US20210315250A1", "about": "“COMBINATION BROAD-SPECTRUM ANTIVIRAL NATURAL EXTRACT SUPPLEMENTS” (priority 2020, published 2021)", "origin": "cited, not measured here", "key": {"ACE2 receptor": {"molecular_target": "ACE2 receptor (Homo sapiens, UniProt Q9BYF1)", "sequence (Q9BYF1 18-805)": "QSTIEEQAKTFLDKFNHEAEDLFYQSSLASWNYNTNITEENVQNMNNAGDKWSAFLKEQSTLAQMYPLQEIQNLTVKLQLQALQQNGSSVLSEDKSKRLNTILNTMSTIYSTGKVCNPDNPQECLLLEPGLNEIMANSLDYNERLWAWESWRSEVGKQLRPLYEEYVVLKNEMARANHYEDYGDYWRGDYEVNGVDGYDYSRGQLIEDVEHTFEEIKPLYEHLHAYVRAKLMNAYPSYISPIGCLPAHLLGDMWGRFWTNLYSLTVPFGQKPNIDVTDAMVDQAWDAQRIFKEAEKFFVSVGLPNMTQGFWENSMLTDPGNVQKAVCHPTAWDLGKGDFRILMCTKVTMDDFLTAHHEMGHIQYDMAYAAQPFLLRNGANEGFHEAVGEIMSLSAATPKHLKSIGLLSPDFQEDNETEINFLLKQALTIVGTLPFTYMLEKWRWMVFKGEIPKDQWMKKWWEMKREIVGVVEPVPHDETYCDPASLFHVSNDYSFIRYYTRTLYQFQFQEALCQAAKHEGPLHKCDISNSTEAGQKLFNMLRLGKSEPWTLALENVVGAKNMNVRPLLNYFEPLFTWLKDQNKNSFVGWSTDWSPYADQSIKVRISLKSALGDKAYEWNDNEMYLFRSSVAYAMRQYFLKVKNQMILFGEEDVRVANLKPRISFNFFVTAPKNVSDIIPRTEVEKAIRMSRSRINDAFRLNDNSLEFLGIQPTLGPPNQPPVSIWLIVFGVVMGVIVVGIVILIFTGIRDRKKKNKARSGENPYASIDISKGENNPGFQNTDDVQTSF"}, "viral S protein": {"molecular_target": "viral S protein (Severe acute respiratory syndrome coronavirus 2, UniProt P0DTC2)"}, "SARS-CoV 3CL": {"molecular_target": "SARS-CoV 3CL (Severe acute respiratory syndrome coronavirus, UniProt P0C6X7)"}, "[1]": {"system": "docking site for SARS-CoV-2"}}, "data": [{"compound": "COc1cc(/C=C/C(=O)CC(=O)/C=C/c2ccc(O)c(OC)c2)ccc1O", "note": "[Curcumin]", "values": [{"measurement": "interaction with ACE2 receptor docking site", "setting": "ACE2 receptor", "value": "interact"}, {"measurement": "interaction with viral S protein docking site", "setting": "viral S protein", "value": "interact"}]}, {"compound": "O=c1cc(-c2ccc(O)c(O)c2)oc2cc(O)cc(O)c12", "note": "[Luteolin]", "values": [{"measurement": "inhibition of the docking site for SARS-CoV 3CL", "setting": "SARS-CoV 3CL", "value": "inhibit"}]}, {"compound": "CC(=O)C=O", "note": "[Methylglyoxal]", "values": [{"measurement": "inhibition of viruses, in particular influenza", "setting": "influenza", "value": "inhibit"}]}, {"compound": "O=c1c(O)c(-c2cc(O)c(O)c(O)c2)oc2cc(O)cc(O)c12", "note": "[Myricetin]", "values": [{"measurement": "inhibition of the docking site for SARS-CoV-2", "setting": "[1]", "value": "inhibit"}]}, {"compound": "O=C1OC[C@H](Cc2ccc3c(c2)OCO3)/C1=C\\c1ccc2c(c1)OCO2", "note": "[Savinin]", "values": [{"measurement": "inhibition of the docking site for SARS-CoV 3CL", "setting": "SARS-CoV 3CL", "value": "inhibit"}]}, {"compound": "C/C=C/c1ccc(OC)cc1", "note": "[Trans-anethole]", "values": [{"measurement": "inhibition of HSV-1", "setting": "HSV-1", "value": "inhibit"}]}, {"compound": "O=c1c(O)c(-c2ccc(O)cc2)oc2c(O)c(O)cc(O)c12", "note": "[herbacetin]", "values": [{"measurement": "binding to SARS-CoV 3CL", "setting": "SARS-CoV 3CL", "value": "bind"}]}, {"compound": "CCCCCCCCCCCCCC(=O)O", "note": "[myristic acid]", "values": [{"measurement": "inhibition of HIV", "setting": "HIV", "value": "inhibit"}, {"measurement": "inhibition of SVS", "setting": "SVS", "value": "inhibit"}]}, {"compound": "COc1ccc(-c2cc(=O)c3c(O)c(OC)c(O[C@@H]4O[C@H](CO[C@@H]5O[C@@H](C)[C@H](O)[C@@H](O)[C@H]5O)[C@@H](O)[C@H](O)[C@H]4O)cc3o2)cc1", "note": "[pectolinarin]", "values": [{"measurement": "binding to SARS-CoV 3CL", "setting": "SARS-CoV 3CL", "value": "bind"}]}, {"compound": "C[C@@H]1O[C@@H](O[C@H]2[C@H](Oc3cc(O)c4c(=O)cc(-c5ccc(O)cc5)oc4c3)O[C@H](CO)[C@@H](O)[C@@H]2O)[C@H](O)[C@H](O)[C@H]1O", "note": "[rhoifolin]", "values": [{"measurement": "binding to SARS-CoV 3CL", "setting": "SARS-CoV 3CL", "value": "bind"}]}, {"compound": "caryophyllene", "values": [{"measurement": "inhibition of HSV-1", "setting": "HSV-1", "value": "inhibit"}]}]}
